The text below walks through data of ChEMBL document CHEMBL1147208, “Asymmetric synthesis of chiral piperazinylpropylisoxazoline ligands for dopamine receptors” (Eur J Med Chem, 2007).

The target in one experiment is D(2) dopamine receptor (Homo sapiens, UniProt P14416). In words: Displacement of [3H]spiperone from human cloned dopamine receptor D2 long expressed in CHO cells. The experiment is classed as cell-based. On the technique in general: Displacement assays read how much labelled ligand stays bound in the presence of the test substance.
For another experiment, the target named is D(3) dopamine receptor (Homo sapiens, UniProt P35462). In words: biochemical.
The target of another experiment is T1, D(4) dopamine receptor (Homo sapiens, UniProt P21917).
T1 sequence (P21917 whole entry): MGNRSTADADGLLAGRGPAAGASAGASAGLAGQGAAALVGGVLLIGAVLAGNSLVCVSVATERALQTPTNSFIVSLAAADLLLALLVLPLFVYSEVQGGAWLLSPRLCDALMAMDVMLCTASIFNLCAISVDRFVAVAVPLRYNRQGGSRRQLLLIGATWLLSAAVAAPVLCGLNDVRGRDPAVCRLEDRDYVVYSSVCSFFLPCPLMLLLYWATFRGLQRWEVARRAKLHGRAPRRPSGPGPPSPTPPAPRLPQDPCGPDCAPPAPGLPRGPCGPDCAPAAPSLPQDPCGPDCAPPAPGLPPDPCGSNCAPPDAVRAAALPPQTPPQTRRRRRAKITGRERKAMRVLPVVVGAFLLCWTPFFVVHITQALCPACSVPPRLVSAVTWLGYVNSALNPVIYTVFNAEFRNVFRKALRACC
In words: Displacement of [3H]YM-09151-2 from human cloned dopamine D4 receptor expressed in CHO cells.

A word on the Ki: it is a measure of affinity in units of concentration, obtained from inhibition or displacement. High values mean weaker binding, low ones tighter binding.

D(3) dopamine receptor, sequence (P35462 whole entry): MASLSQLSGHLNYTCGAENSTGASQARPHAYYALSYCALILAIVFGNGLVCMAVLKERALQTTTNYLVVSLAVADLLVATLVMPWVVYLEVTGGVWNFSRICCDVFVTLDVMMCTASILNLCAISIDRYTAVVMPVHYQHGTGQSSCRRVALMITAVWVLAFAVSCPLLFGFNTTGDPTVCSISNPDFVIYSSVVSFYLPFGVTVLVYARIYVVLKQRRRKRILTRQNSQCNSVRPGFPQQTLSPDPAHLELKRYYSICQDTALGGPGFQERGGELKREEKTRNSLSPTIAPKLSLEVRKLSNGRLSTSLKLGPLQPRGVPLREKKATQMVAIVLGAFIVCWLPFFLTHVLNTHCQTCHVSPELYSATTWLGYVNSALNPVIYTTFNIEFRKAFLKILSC
D(2) dopamine receptor, sequence (P14416 whole entry): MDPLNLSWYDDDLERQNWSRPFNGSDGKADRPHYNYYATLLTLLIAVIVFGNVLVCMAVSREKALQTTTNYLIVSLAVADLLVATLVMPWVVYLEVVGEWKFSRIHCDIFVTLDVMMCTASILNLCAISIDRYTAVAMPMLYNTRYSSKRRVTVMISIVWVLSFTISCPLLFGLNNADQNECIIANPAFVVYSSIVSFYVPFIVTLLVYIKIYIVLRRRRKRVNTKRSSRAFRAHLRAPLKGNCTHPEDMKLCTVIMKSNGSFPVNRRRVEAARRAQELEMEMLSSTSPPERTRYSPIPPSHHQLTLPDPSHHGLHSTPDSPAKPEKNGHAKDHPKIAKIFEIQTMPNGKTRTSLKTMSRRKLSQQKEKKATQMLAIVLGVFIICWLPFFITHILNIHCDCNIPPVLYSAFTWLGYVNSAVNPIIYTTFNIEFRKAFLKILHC
Description for D(3) dopamine receptor: Displacement of [3H]YM-09151-2 from human cloned dopamine D3 receptor expressed in CHO cells

Regarding `COc1ccc(C2=NO[C@H](CCCN3CCN(C(c4ccc(F)cc4)c4ccc(F)cc4)CC3)C2)cc1OC`, the Ki on D(2) dopamine receptor was found to be 80 nM; at D(3) dopamine receptor, 2.1 nM; on D(4) dopamine receptor, 426 nM.
For the molecule `CCOc1ccccc1N1CCN(CCC[C@@H]2CC(c3ccc(OC)c(OC)c3)=NO2)CC1`, the figures for the Ki on D(2) dopamine receptor, at D(3) dopamine receptor and on D(4) dopamine receptor were 46 nM, 2.1 nM and 507 nM, respectively.
Take `CCOc1ccccc1N1CCN(CCC[C@H]2CC(c3ccc(OC)c(OC)c3)=NO2)CC1`: the Ki at D(2) dopamine receptor was found to be 70 nM; at D(3) dopamine receptor, 5.1 nM; on D(4) dopamine receptor, 225 nM.
Regarding `COc1ccc(C2=NO[C@@H](CCCN3CCN(C(c4ccc(F)cc4)c4ccc(F)cc4)CC3)C2)cc1OC`, the Ki was 400 nM at D(2) dopamine receptor, 20 nM on D(3) dopamine receptor and 483 nM at D(4) dopamine receptor.
